{"source": "patent US20220411414A1", "about": "“INHIBITORS FOR THE B-CATENIN/B-CELL LYMPHOMA 9 (BCL9) PROTEIN-PROTEIN INTERACTION” (H. LEE MOFFITT CANCER CENTER AND RESEARCH INSTITUTE, INC., priority 2018, published 2022)", "key": {"[1]": {"tested_on": "FOPFlash (three mutant Tcf4 binding sites) luciferase reporter", "assay": "FOPFlash luciferase reporter assay", "type": "cell-based", "conditions": "FIG. 1", "description": "Cell transfection and luciferase assay. FuGENE6 (E269A, Promega) 96 well plate format was used for the transfection of HEK293 and SW480 cells according to the manufacturer's instruction. HEK293 cells were co-transfected with 45 ng of TOPFlash or FOPFlash reporter gene, 135 ng pcDNA3.1-β-catenin, and 20 ng of pCMV-RL normalization reporter gene. SW480 cells were co-transfected with 60 ng of the TOPFlash or FOPFlash reporter gene and 40 ng of pCMV-RL normalization reporter. Cells were cultured in DMEM and 10% FBS at 37° C. for 24 h, and different concentrations of inhibitors or DMSO was added. After 24 h, the luciferase reporter activity was measured using the Dual-Glo system (E2940, Promega). Normalized luciferase activity in response to the treatment with 4 and 5 was compared with that obtained from the cells treated with DMSO. Experiments were performed in triplicate."}, "[2]": {"tested_on": "protein expression of cyclin D1, c-myc, ABC, total β-catenin", "assay": "Western blot analysis in SW480 cells", "type": "cell-based", "conditions": "SW480, 24 h, FIG. 3", "description": "Protein expression levels of cyclin D1, c-myc, the active form of β-catenin (ABC), and total β-catenin in SW480 cells were examined by Western blot analysis (FIG. 3). […] Western blotting. SW480 cells at 1×10^6 cells/[…] were treated with different concentrations of 4 for 24 h. Cells were lysed in buffer containing 50 mM Tris (pH 7.4), 150 mM NaCl, 1% Nonidet P-40, 0.5% sodium deoxycholate, 0.1% SDS, and protease inhibitors. After centrifugation at 12,000 rpm for 20 min at 4° C., the supernatant was loaded onto an 8% SDS polyacrylamide gel for electrophoretic analysis. Separated proteins were transferred onto nitrocellulose membranes for immunoblot analysis. The antibodies against total β-catenin (610153, BD Biosciences, most of which is phosphorylated β-catenin and represents the E-cadherin bound pool), the active form of β-catenin (ABC, 05-665, EMD Millipore, dephosphorylated at positions S37 and T41 of β-catenin), cyclin D1 (sc-853, Santa Cruz Biotechnology, Inc.), c-myc (D84C12, Cell Signaling), and β-tubulin (sc-55529, Santa Cruz Biotechnology, Inc) were incubated with the membranes overnight at 4° C. respectively. IRDye 680LT goat anti-mouse IgG (827-11080, LiCOR) or IRDye 800CW goat anti-rabbit IgG (827-08365, LiCOR) was used as the secondary antibody. The images were detected by the Odyssey Infrared Imaging System (LiCOR). Experiments were performed in duplicate."}}}
{"smiles": "Cl.Cl.O=C(Nc1ccc(O[C@@H]2CCNC2)c(-c2cccc(-c3nn[nH]n3)c2)c1)c1ccc(O[C@H]2CCNC2)c(-c2ccc(F)c(F)c2)c1", "note": "[Compound 4, 3′,4′-difluoro-6-(((S)-pyrrolidin-3-yl)oxy)-N-(6-(((R)-pyrrolidin-3-yl)oxy)-3′-(2H-tetrazol-5-yl)-[1,1′-biphenyl]-3-yl)-[1,1′-biphenyl]-3-carboxamide dihydrochloride]", "values": [{"measurement": "FOPFlash luciferase activity", "setting": "[1]", "result": "did not inhibit"}, {"measurement": "E-cadherin-bound β-catenin (total β-catenin)", "setting": "[2]", "result": "had no effect"}, {"measurement": "activated β-catenin (ABC) in the cell nucleus", "setting": "[2]", "result": "reduced"}, {"measurement": "protein expression level of c-myc", "setting": "[2]", "result": "significantly reduced"}, {"measurement": "protein expression level of cyclin D1", "setting": "[2]", "result": "significantly reduced"}]}
